Results: patent US10322123B2, “Compound for anti-cancer therapy that acts by targeting GOF mutant P53 and stimulates P73 to restore the P53 pathway signaling” (The Penn State Research Foundation, priority 2014, dated 2019)

Experiments:
p21, Puma, DR5 and Noxa = assay: Western blot of p53 target gene proteins; format: cell-based, human
Method: (§1) Proteins were extracted from cells and electrophoresed through 4-12% SDS-PAGE then transferred to PVDF membranes. The primary antibodies indicated in the figures were incubated with the transferred PVDF in blocking buffer at 4° C. overnight. Antibody binding was detected on PVDF with appropriate IRDye-secondary antibodies (LI-COR Biosciences, USA) by the ODYSSEY infrared imaging system.

[1] = tested on: cancer cell lines bearing different p53 mutations; assay: CellTiter-Glo luminescent cell viability assay, cell line panel; format: cell-based, human; conditions: most cancer cells compared with normal cells, 72 hr
Method: Cells at a concentration of 5000 cells/well in 96-well plates were treated with NSC59984 or other drugs. At seventy-two hours after treatment, cells were mixed with an equal volume of CellTiter-Glo reagents (Promega, Madison, Wis.), following the manufacturer's protocol, and bioluminescence imaging was measured using the IVIS imager.

RXF393 cells = assay: Flow cytometry sub-G1 DNA content; format: cell-based, human; conditions: 50 μM, 8 hours
Method: (§2) Cells were treated with NSC59984 or other drugs. Seventy-two hours after treatment, the cells were fixed with ethanol and stained with Propidium Iodide (PI). The samples were then subjected to analysis by an Epics Elite flow cytometer to measure the DNA content of the stained cells.

cancer cells [2] = assay: Flow cytometry sub-G1 DNA content; format: cell-based, human; conditions: 72 hr
Method: as §2

normal cells = assay: Flow cytometry sub-G1 DNA content; format: cell-based, human; conditions: 25 μM, 72 hr
Method: as §2

[3] = tested on: MRC5 normal human fibroblast cells; assay: Flow cytometry sub-G1 DNA content; format: cell-based; conditions: 50 μM, 72 hr
Method: as §2

[4] = tested on: Wi38 normal human fibroblast cells; assay: Flow cytometry sub-G1 DNA content; format: cell-based; conditions: 50 μM, 72 hr
Method: as §2

DLD-1 cells = assay: Flow cytometry sub-G1 DNA content; format: cell-based, human
Method: as §2
Cells were infected with retrovirus containing the pSIREN-REtrpcQ retroviral vector recombinant with TAp73 RNAi. Cells were cultured with blasticidin for several weeks, and blasticidin-resistant clones were selected. Knock-down of p73 was detected by measuring p73 protein levels by Western blot with anti-p73 antibody (Bethyl laboratories Inc. USA).

Hop92 and SW480 cells = assay: Flow cytometry sub-G1 DNA content; format: cell-based, human; conditions: 25 μM and 50 μM, 8 hours
Method: Cells were treated with NSC59984 or other drugs. […] The samples were then subjected to analysis by an Epics Elite flow cytometer to measure the DNA content of the stained cells.

cancer cells [5] = assay: Colony formation assay; format: cell-based, human; conditions: treated 3 days, then drug-free medium two weeks
Method: Franken N A, et al., Nat Protoc 2006; 1: 2315-9). Cancer cells were plated at 500 cells/well on 6-well plate, and then treated with NSC59984 next day. At 3 days after NSC59984 treatment, cancer cells were cultured with drug-free complete medium for two weeks with fresh medium changed every 3 days. Cells were fixed with 10% formalin and stained with 0.05% crystal violet at the end of two weeks period of cell culture.

PARP cleavage = assay: Cleaved PARP Western blot; format: cell-based, human; conditions: for PARP cleavage: 30 hours
Method: as §1

γH2AX = assay: Genotoxicity measured by γH2AX; format: cell-based, human
Method: as §1

mutant p53 [6] = format: cell-based, human
Method: The primary antibodies indicated in the figures were incubated with the transferred PVDF in blocking buffer at 4° C. overnight. Antibody binding was detected on PVDF with appropriate IRDye-secondary antibodies (LI-COR Biosciences, USA) by the ODYSSEY infrared imaging system.

wild-type p53 = assay: Wild-type p53 protein level Western blot; format: cell-based, human; conditions: 8 hr
Method: as §1

mutant p53 [7] = assay: Ubiquitination of mutant p53 (immunoprecipitation); format: cell-based, human; conditions: cancer cells treated with NSC59984 and MG132, 16 hr
Method: (§3) Five hundred micrograms of cell lysate were incubated with 2 μg of antibody overnight at 4° C. Then, 25 μl of protein A-Sepharose beads were added to the lysates. The immunoprecipitated proteins were eluted from protein A-Sepharose beads by boiling with 2× sample buffer and subjected to SDS-PAGE.
as §1

MDM2 = assay: Phosphorylation Western blot; format: cell-based, human; conditions: SW480 cells
Method: as §1

[8] = biological target: T1, wild-type p53 protein epitope (Homo sapiens, UniProt P04637, R175H); assay: Wild-type p53 conformation with Pab1620 antibody; format: cell-based; conditions: RXF393 cells, 24 hr
T1 construct: endogenous in cells; host or cells: RXF393
Method: as §3

mutant p53 [9] = biological target: mutant p53 (Homo sapiens, UniProt P04637, P309S/R273H); assay: Phosphorylation Western blot; format: cell-based; parameters: Phosphorylation of mutant p53 at Thr 55 and phosphorylation of MDM2 at Ser166 were found in SW480 cancer cells; endogenous in cells; host or cells: SW480; conditions: SW480 cells
Method: as §1

[10] = HCT116 and p53-null HCT116 cells

**Q.** How did the p21 protein (p21, Puma, DR5 and Noxa; [10]) turn out when CN1CCN(C(=O)/C=C/c2ccc([N+](=O)[O-])o2)CC1 [NSC59984, (E)-1-(4-methylpiperazin-1-yl)-3-(5-nitrofuran-2-yl)prop-2-en-1-one] was run?
**A.** up-regulated

**Q.** What about the “protein levels of Puma, DR5 and Noxa” value (p21, Puma, DR5 and Noxa; [10]) of the same compound?
**A.** not up-regulated

**Q.** What about the “protein levels of p21, Puma, Noxa and DR5” value (p21, Puma, DR5 and Noxa; SW480 and DLD-1 cells, increasing doses, 8 hr) of the same compound?
**A.** significantly up-regulated

**Q.** What about the “up-regulation of endogenous p21, Puma, DR5 and Noxa proteins” value (p21, Puma, DR5 and Noxa; p73 knock-down DLD-1 cells, 8 hr) of the same compound?
**A.** reduced by p73 knock-down

**Q.** And the EC50 cell viability [1]?
**A.** significantly lower

**Q.** What about the “Sub-G1 DNA content” value (RXF393 cells) of the same compound?
**A.** 8.7%

**Q.** And the “sub-G1 DNA content” value (cancer cells [2]; 25 μM)?
**A.** 26-56%

**Q.** And the “cells with sub-G1 content” value (cancer cells [2]; 50 μM)?
**A.** 55-93%

**Q.** And the “sub-G1 DNA content increase” value (normal cells)?
**A.** not in normal cells

**Q.** What about the “DNA content in Sub-G1” value [3] of the same compound?
**A.** 30%

**Q.** What about the “DNA content in Sub-G1” value [4] of the same compound?
**A.** 12%

**Q.** And the “Sub-G1 DNA content” value (DLD-1 cells; 50 μM, 8 hours, DLD-1)?
**A.** 8.2%

**Q.** What about the “percentage of cells with sub-G1 content” value (DLD-1 cells; DLD-1 cells, 72 hr) of the same compound?
**A.** increased

**Q.** What about the “effect on percentage of cells with sub-G1 content” value (DLD-1 cells; p73 knock-down DLD-1 cells, 72 hr) of the same compound?
**A.** significantly reduced

**Q.** And the “subG1 DNA-content” value (Hop92 and SW480 cells)?
**A.** nor subG1 DNA-content was increased

**Q.** And the colony numbers (cancer cells [5])?
**A.** significantly reduced

**Q.** And the PARP cleavage (PARP cleavage; cancer cells, dose-dependent)?
**A.** increased

**Q.** And the PARP cleavage (PARP cleavage; normal cells, same doses)?
**A.** not observed

**Q.** And the “NSC59984-induced PARP cleavage” value (PARP cleavage; p73 knock-down DLD-1 cells, 24 hours)?
**A.** partially abrogated

**Q.** What about the γH2AX (γH2AX; HCT116 cells, 8 hours, 12 μM) of the same compound?
**A.** increase of γH2AX

**Q.** And the γH2AX (γH2AX; SW480 and DLD-1 cancer cells, within 24 hr, up to 50 μM)?
**A.** No γH2AX was found

**Q.** What about the “total mutant p53 protein degraded” value (mutant p53 [6]; DLD-1 and RXF393 cells, 50 μM) of the same compound?
**A.** 25-50%

**Q.** What about the “mutant p53 protein level” value (mutant p53 [6]; SW480, DLD-1, Hop92 and RXF393 cells, 8 hr, dose-dependent) of the same compound?
**A.** down-regulated

**Q.** What about the “wild-type p53 protein” value (wild-type p53; HCT116 cancer cells, 25 and 50 μM) of the same compound?
**A.** up-regulated

**Q.** And the “wild-type p53 protein” value (wild-type p53; MRC-5 normal cells, 50 μM)?
**A.** up-regulated

**Q.** What about the “ubiquitination of mutant p53” value (mutant p53 [7]) of the same compound?
**A.** increased ubiquitination

**Q.** What about the “phosphorylation of MDM2” value (MDM2) of the same compound?
**A.** phosphorylated at Ser166

**Q.** What about the “immunohistochemistry staining with Pab1620” value [8] of the same compound?
**A.** no staining

**Q.** What about the “immunoprecipitation of p53 protein with Pab1620 antibody” value [8] of the same compound?
**A.** no p53 protein bound

**Q.** What about the “phosphorylation of mutant p53” value (mutant p53 [9]) of the same compound?
**A.** phosphorylated at Thr55
